From patent EP1594520B1, “USE OF BRADYKININ-B2 RECEPTOR ANTAGONISTS FOR TREATING OSTEOARTHROSIS” (Sanofi-Aventis Deutschland GmbH, priority 2003, dated 2006) come the findings set out here.

The test system of the assay is SW1353 Zellen. The assay is described as follows: MMP-3 release from IL-1 stimulated SW1353 chondrosarcoma cells (MMP3 ELISA of the culture supernatant). Format: cell-based. The method, then:
Für die Analyse der krankheitsmodifizierenden Wirkung von HOE140 in einem Knorpelrelevanten Zellkulturmodel wurde die MMP3 Expression in der Chondrosarcom Zellline SW1353 (ATCC: HTB 94) analysiert. Für die Versuche wurden SW1353 Zellen unter Standard Bedingungen (37°C, 5% CO2) in DMEM-Glutamax mit 10% Fötalem Kälberserum (FKS) in Plastikkulturflaschen kultiviert. Nach ab-trypsinieren der Zellen wurden 50.000 Zellen je well einer 96-well Flachboden Platte in Medium ohne FKS ausgesät und mit der Verbindung HOE140 im Inkubator vorinkubiert. […] Nach 24 Stunden Inkubation unter Standardbedingungen wurde der Zellkulturüberstand abgenommen, 5 Minuten zentrifugiert und bei -20 °C bis zur weiteren Analyse eingefroren. Die Analyse der MMP3 Expression in den Zellkulturüberständen erfolgt dann mittels eines kommerziellen MMP3 ELISA Testsystems (Amersham) nach Angaben des Herstellers. Parallel dazu wurde mit den verbleibenden Zellen ein WST-Zytotoxizitätstest durchgeführt. Dazu wurde das kommerzielle Testsystem der Firma Roche verwendet und die Messung nach Angaben des Herstellerprotokolls durchgeführt.
Die nachfolgende Tabelle 1 zeigt die Ergebnisse. Bradykinin erhöht die MMP3 Freisetzung um mehr als 30%. […] Tabelle 1 MMP-3 Freisetzung aus SW-Zellen
(In an ELISA, binding on a coated surface is turned into a signal by an enzyme label.)

In the case of “Bradykinin: natürlich vorkommendes Nonapeptid, das einige pharmakologische Effekte aufweist, die zu Entzündungen und Schmerzen führen (RPPGFSPFR; Bradykinin; UniProt P01042 381-389, looked up) [reference compound]”, the “Erhöhung der MMP3 Freisetzung” value (Bradykinin added to IL1-stimulated SW cells) is greater than 30%. Besides, for the setting “IL1α + Bradykinin (0,1 µM), no antagonist”, the “MMP-3 Freisetzung MW (OD450nm)” value is 433 OD450nm. The “Relativwerte bezogen auf Ausgangswert” value (IL1α + Bradykinin (0,1 µM), no antagonist, IL1α (0,05 ng/ml) alone = 100) is given as 132,0.
On to “D-Arginyl-L-arginyl-L-prolyl-L-prolylglycyl-3-(2-thienyl)-L-alanyl-L-seryl-(3R)-1,2,3,4-tetrahydro-3-isochinolincarbonyl-(2S,3aS,7aS)-octahydro-1H-indol-2-carbonyl-L-arginin [HOE140]”, for which the “MMP-3 Freisetzung MW (OD450nm)” value reads like this: (IL1α + Bradykinin (0,1 µM) + 0,1 µM HOE140) 371 OD450nm; (IL1α + Bradykinin (0,1 µM) + 0,05 µM HOE140) 458 OD450nm; (IL1α + Bradykinin (0,1 µM) + 0,5 µM HOE140) 309 OD450nm; (IL1α + Bradykinin (0,1 µM) + 1 µM HOE140) 306 OD450nm. Further, the “Relativwerte bezogen auf Ausgangswert” value (IL1α + Bradykinin (0,1 µM) + 0,1 µM HOE140, IL1α alone = 100) is recorded as 113,1; the “Relativwerte bezogen auf Ausgangswert” value (IL1α + Bradykinin (0,1 µM) + 0,05 µM HOE140, IL1α alone = 100) is on record as 139,6; the “Relativwerte bezogen auf Ausgangswert” value (IL1α + Bradykinin (0,1 µM) + 0,5 µM HOE140, IL1α alone = 100) was 94,2; the “Relativwerte bezogen auf Ausgangswert” value (IL1α + Bradykinin (0,1 µM) + 1 µM HOE140, IL1α alone = 100) is listed as 93,3. The “Hemmung der durch Bradykinin erhöhten Freisetzung von MMP 3” value (IL1α + Bradykinin (0,1 µM), 0,05 to 1 µM HOE140) is “dosis-abhängig gehemmt”.
